Test results taken from patent US12103936B2, “Crystal form of hepatitis B surface antigen inhibitor” (FUJIAN AKEYLINK BIOTECHNOLOGY CO., LTD., priority 2018, dated 2024).

How the values were obtained:
[1] = test system: HBV-DNA; details: woodchuck model, single drug; cited from earlier work
[2] = test system: surface antigens; details: woodchuck model, single drug; cited from earlier work
[3] = test system: HBsAg; assay: In vivo efficacy study in AAV/HBV mice model, HBsAg content in serum; set-up: species or system C57BL/6 mice; details: PO
From the text: C57BL/6 mice, 10% HP-β-CD as vehicle, TDF ([…]) as refer compound, the compound of formula (I), and recombinant virus rAAV8-1.3HBV.
The reagents of the present project mainly included QIAamp96 DNA kit and TaqMan® Universal PCR Master Mix, hepatitis B surface antigen test kit.
The instrument included centrifuge (Beckman Allegra X-15R), tissue grinder (QIAGEN-Tissue lyser II) and spectrophotometer (Thermo-NANODROP 1000).
• a) All mice were administrated orally on the day 28 after being injected with virus, the day of administration was designated as day 0. Before administration, serum was collected by submandibular blood sampling for all mice. The mice were administration once a day for four weeks. The detailed dosage regimen was shown in Table 3. • b) Serum was collected by submandibular blood sampling for all mice twice a week, with each sampling volume being approximately 100 μL. The detailed blood sampling time is shown in Table 3. • c) On the day 28, all mice were euthanized and the blood was collected from the heart for serum collection. • d) All serum samples were sent for analysis.
The anti-HBV activity of the test compound in AAV/HBV mice model was evaluated by determining the content of HBsAg in the serum of the mice.

[4] = test system: HBsAg; assay: HBV in vitro test in HepG2.2.15 cells, hepatitis B surface antigen by ELISA; format: cell-based; details: Hepatitis B virus, HepG2.2.15, 192 h, read-out: EC50 against HBsAg
Description: (§1) 1. Cell Line: HepG2.2.15 Cells
(§2) • Pancreatin (Invitrogen-25300062) • DPBS (Corning-21031CVR) • DMSO (Sigma-D2650-100 mL) • High-throughput DNA purification kit (QIAamp 96 DNA Blood Kit, Qiagen-51162) • Quantitative quick start universal probe reagent (FastStart Universal Probe Master, Roche-04914058001) • Hepatitis B surface antigen quantitative test kit (Autobio, CL0310) 3. Consumables and Instruments: • 96-well cell culture plate (Cornin-3599) • CO2 incubator (HERA-CELL-240) • Optical sealing film (ABI-4311971) • Quantitative PCR 96-well plate (Applied Biosystems-4306737) • Fluorescence quantitative PCR instrument (Applied Biosystems-7500 real time PCR system) Experimental Methods: • 1. HepG2.2.15 cells (4×10^4 cells/well) were seeded to a 96-well plate and cultured overnight at 37° C., 5% CO2. • 2. On the day 2, the compound was diluted to a total of 8 concentrations, with a 3-fold gradient dilution. Different concentrations of compounds were added into the culture wells in duplicate wells. The final concentration of DMSO in the culture medium was 0.5%. 10 μM ETV (Entecavir) was used as a 100% inhibition control; 0.5% DMSO was used as a 0% inhibition control. • 3. […]
(§3) 50 μL of sample and standard were added into a reaction plate respectively, followed by addition of 50 μL of enzyme conjugate into each well. […] Chemoluminescence intensity was determined by an ELISA finally. • 9.

[5] = test system: HBV-DNA; assay: HBV in vitro test in HepG2.2.15 cells, HBV-DNA by quantitative PCR; format: cell-based; details: Hepatitis B virus, 192 h, culture medium collected on day 8, read-out: EC50 against HBV-DNA
Description: as §1, §2, §3

[6] = 10 mg/kg, detection date day 11
[7] = 10 mg/kg, detection date day 14
[8] = 10 mg/kg, detection date day 18
[9] = 10 mg/kg, detection date day 21
[10] = 10 mg/kg, detection date day 25
[11] = 10 mg/kg, detection date day 28
[12] = 10 mg/kg, detection date day -1

COCCCOc1cc2c(cc1OC)-c1cc(=O)c(C(=O)O)cn1[C@H](C(C)C)C2 [RG7834, reference compound]
reduction of HBV-DNA [1]: 1.7 Log
reduction of surface antigens [2]: 2.57 Log
HBsAg content in mice ([3]; 10 mg/kg, detection date day 4): 3.54 IU/mL
HBsAg content in mice ([3]; 10 mg/kg, detection date day 7): 3.58 IU/mL
HBsAg content in mice [3, 6]: 3.70 IU/mL
HBsAg content in mice [3, 7]: 3.49 IU/mL
HBsAg content in mice [3, 8]: 3.70 IU/mL
HBsAg content in mice [3, 9]: 3.52 IU/mL
HBsAg content in mice [3, 10]: 3.50 IU/mL
HBsAg content in mice [3, 11]: 3.66 IU/mL
HBsAg content in mice [3, 12]: 4.56 IU/mL

COCCCOc1cc2c(cc1OC)-c1cc(=O)c(C(=O)O)cn1[C@H](C(C)(C)C)CO2 [the compound of formula (I)]
EC50 [4]: 3.88 nM
EC50 [5]: 2.55 nM
HBsAg content in mice ([3]; 3 mg/kg, detection date day 4): 3.68 IU/mL
HBsAg content in mice ([3]; 3 mg/kg, detection date day 7): 3.70 IU/mL
HBsAg content in mice ([3]; 3 mg/kg, detection date day 11): 3.76 IU/mL
HBsAg content in mice ([3]; 3 mg/kg, detection date day 14): 3.70 IU/mL
HBsAg content in mice ([3]; 3 mg/kg, detection date day 18): 3.85 IU/mL
HBsAg content in mice ([3]; 3 mg/kg, detection date day 21): 3.78 IU/mL
HBsAg content in mice ([3]; 3 mg/kg, detection date day 25): 3.76 IU/mL
HBsAg content in mice ([3]; 3 mg/kg, detection date day 28): 3.96 IU/mL
HBsAg content in mice ([3]; 3 mg/kg, detection date day -1): 4.54 IU/mL
HBsAg content in mice ([3]; 10 mg/kg, detection date day 4): 3.56 IU/mL
HBsAg content in mice ([3]; 10 mg/kg, detection date day 7): 3.69 IU/mL
HBsAg content in mice [3, 6]: 3.92 IU/mL
HBsAg content in mice [3, 7]: 3.61 IU/mL
HBsAg content in mice [3, 8]: 3.90 IU/mL
HBsAg content in mice [3, 9]: 3.75 IU/mL
HBsAg content in mice [3, 10]: 3.83 IU/mL
HBsAg content in mice [3, 11]: 3.87 IU/mL
HBsAg content in mice [3, 12]: 4.51 IU/mL
HBsAg content in mice ([3]; 30 mg/kg, detection date day 4): 3.38 IU/mL
HBsAg content in mice ([3]; 30 mg/kg, detection date day 7): 3.44 IU/mL
HBsAg content in mice ([3]; 30 mg/kg, detection date day 11): 3.64 IU/mL
HBsAg content in mice ([3]; 30 mg/kg, detection date day 14): 3.40 IU/mL
HBsAg content in mice ([3]; 30 mg/kg, detection date day 18): 3.55 IU/mL
HBsAg content in mice ([3]; 30 mg/kg, detection date day 21): 3.46 IU/mL
HBsAg content in mice ([3]; 30 mg/kg, detection date day 25): 3.37 IU/mL
HBsAg content in mice ([3]; 30 mg/kg, detection date day 28): 3.53 IU/mL
HBsAg content in mice ([3]; 30 mg/kg, detection date day -1): 4.48 IU/mL
